Where a name gives a salt, the structure may show the parent alone.
The compounds below were run on KDR.
Experimental: Inhibition of Binding of VEGF 165 to KDR & Flt-1 Receptors as Measured by SPA Assay
Preparation of conditioned media containing the KDR-Fc soluble VEGF receptor.:
Human 293KDR2 cells, which secrete a soluble KDR-Fc fusion protein, were grown in Dulbecco's Modified Eagle Medium supplemented with 10% fetal calf serum, 2 mM glutamine, 10 units/ml penicillin G sulfate, 10 μg/ml streptomycin sulfate and 175 μg/ml geneticin (G418) sulfate. Cells were plated at a density of 10^6 cells/100 mm dish and incubated at 37° C. in a humidified atmosphere containing 95% air and 5% CO2. After 10 days, conditioned medium was collected and centrifuged at 15,000 rpm for 15 min to remove dead cells. A total of 0.1 volume of 1.15% gelatin and 0.02 volume of 1M HEPES buffer (pH 8) was added. Leupeptin and pepstatin A were added to 1 μg/ml each.
Preparation of ^125 I-labelled VEGF ligand:
Recombinant human ^125 T-labelled VEGF 165 was purchased from Amersham (3,800 cpm/fmol). ^125,-labelled VEGF was diluted in DMEM supplemented with gelatin (0.15%) and HEPES buffer (20 mM) to a final concentration of 40,000 cpm/25 μl.
Preparation of SPA beads:
SPA PVT antibody-binding beads were purchased from Amersham. Each bottle of SPA beads (500 mg) was reconstituted in 25 ml of DMEM supplemented with gelatin (0.15%) and HEPES buffer (20 mM). The bottle contents were well mixed (15 min with a stir bar at room temperature).
SPA assays were performed in flat-bottom polystyrene 96 well microtitre plates.
(a) Pipette 50 μl of SPA beads to well.
(b) Pipette 25 μl of conditioned medium to well.
(d) Pipette 25 μl of ^125 J-VEGF 165 to well.
The appropriate control wells were set up to measure non-specific binding, solvent effect, etc. The assays were run in duplicate or triplicate wells. Plates were sealed and incubate at room temperature without shaking for 5 to 20 hours. Plates were then counted in a Packard TopCount microtitre plate liquid scintillation counter.
A typical assay gave 3,000 to 6,000 cpm bound. Background binding (measured in the presence of 100-fold molar excess of unlabelled VEGF 165) was typically 200 to 300 cpm bound. Compounds were tested at 30, 10, 3, 1, 0.3 and 0.1 μg/ml in DMSO. […] Half maximal binding was determined by the following equation:
s=maximal cpm bound in the absence of compound.
The IC50 values were determined graphically by the following procedure:
A graph was drawn plotting compound concentration (x-axis) versus cpm bound (y-axis).
The half maximal binding was calculated using the equation above.
A horizontal line (LINE A) was drawn which intersects the y-axis at the half maximal binding value.
A vertical line (LINE B) was drawn through the point where LINE A intersects the inhibition curve.
The point where LINE B intersects the x-axis was extrapolated from the graph to give the IC50 value.

**Q.** How did the IC50 turn out when `O=C(Nc1cc2sc3cc(NC(=O)c4ccc5cc6ccccc6cc5c4)c(C(=O)O)cc3c2cc1C(=O)O)c1ccc2cc3ccccc3cc2c1` [Example 3, 3,7-Bis[(2-anthracenylcarbonyl)amino]-2,8-dibenzothiophene-2,8-dicarboxylic acid, disodium salt] was run?
**A.** Its IC50 is 3.4 µg/mL.

**Q.** With `O=C(Nc1cc2sc3cc(NC(=O)c4cc5sccc5s4)c(C(=O)O)cc3c2cc1C(=O)O)c1cc2sccc2s1` [Example 5, 3,7-Bis[(thieno[3,2-b]thien-2-ylcarbonyl)amino]dibenzothiophene-2,8-dicarboxylic acid, disodium salt] as the compound, how does the IC50 read?
**A.** The IC50 was 0.7 µg/mL.

**Q.** For `O=C(/C=C/c1ccc(-c2ccccc2)cc1)Nc1cc2sc3cc(NC(=O)/C=C/c4ccc(-c5ccccc5)cc4)c(C(=O)O)cc3c2cc1C(=O)O` [Example 9, 3,7-Bis-(3-biphenyl-4-ylacryloylamino)dibenzothiophene-2,8-dicarboxylic Acid, disodium salt], which IC50 is on record?
**A.** The IC50 was 3.4 µg/mL.

**Q.** Which IC50 does the source give for `COc1cc(/C=C/C(=O)Nc2cc3sc4cc(NC(=O)/C=C/c5cc(Br)c(O)c(OC)c5)c(C(=O)O)cc4c3cc2C(=O)O)cc(Br)c1O` [Example 10, 3,7-Bis-[3-(3-bromo-4-hydroxy-5-methoxy-phenyl)acryloylamino]-dibenzothiophene-2,8-dicarboxylic Acid, disodium] here?
**A.** The IC50 was 0.9 µg/mL.

**Q.** Which IC50 does the source give for `COc1ccc(/C=C/C(=O)Nc2cc3sc4cc(NC(=O)/C=C/c5ccc(OC)c(OC)c5OC)c(C(=O)O)cc4c3cc2C(=O)O)c(OC)c1OC` [Example 11, 3,7-Bis-[3-(2,3,4-trimethoxyphenyl)acryloylamino]dibenzothiophene-2,8-dicarboxylic Acid, disodium salt] here?
**A.** Its IC50 is 1.7 µg/mL.

**Q.** With `C=C(C(=O)Nc1cc2sc3cc(Cl)c(C(=O)O)cc3c2cc1C(=O)O)c1ccc(OC)c(OC)c1Cl` [Example 14, 3-Chloro-7-[2-(2-chloro-3,4-dimethoxyphenyl)acryloylamino]dibenzothiophene-2,8-dicarboxylic acid, disodium salt] as the compound, how does the IC50 read?
**A.** The IC50 was 3 µg/mL.

**Q.** `O=C(Nc1cc2sc3cc(Cl)c(C(=O)O)cc3c2cc1C(=O)O)c1ccc2cc3ccccc3cc2c1` [Example 15, 3-[(2-Anthracenylcarbonyl)amino]-7-chlorodibenzothiophene-2,8-dicarboxylic acid, disodium salt] was tested. Which IC50 did it give?
**A.** The IC50 was 1.6 µg/mL.

**Q.** With `CCOP(=O)(O)c1cc2c(cc1NC(=O)/C=C/c1ccc(OC)c(OC)c1Cl)S(=O)(=O)c1cc(NC(=O)/C=C/c3ccc(OC)c(OC)c3Cl)c(P(=O)(O)OCC)cc1-2` [Example 19, [3,7-Bis-[3-(2-chloro-3,4-dimethoxyphenyl)acryloylamino]-8-(ethoxyhydroxyphosphoryl)-5 .5-dioxo-5H-5λ^6-dibenzothiophen-2-yl]phosphonic acid monoethyl ester, disodium salt] as the compound, how does the IC50 read?
**A.** Its IC50 is 0.55 µg/mL.

**Q.** Which IC50 does the source give for `CCOP(=O)(O)c1cc2c(cc1NC(=O)c1ccc3c(c1)C(=O)c1ccccc1C3=O)S(=O)(=O)c1cc(NC(=O)c3ccc4c(c3)C(=O)c3ccccc3C4=O)c(P(=O)(O)OCC)cc1-2` [Example 21, [3,7-Bis-[9,10-dioxo-9,10-dihydroanthracene-2-carbonyl)amino]-8-(ethoxyhydroxy-phosphoryl)-5,5-dioxo-5H-5^6-dibenzothiophen-2-yl]phosphonic acid monoethyl ester, disodium salt] here?
**A.** The IC50 was 0.2 µg/mL.

**Q.** `CCOP(=O)(O)c1cc2c(cc1NC(=O)c1ccc3cc4ccccc4cc3c1)S(=O)(=O)c1cc(NC(=O)c3ccc4cc5ccccc5cc4c3)c(P(=O)(O)OCC)cc1-2` [Example 22, [3,7-Bis-[(anthracene-2-carbonyl)amino]-8-(ethoxyhydroxy-phosphoryl)-5,5-dioxo-5H-5^6-dibenzothiophen-2-yl]-phosphonic acid mono-ethyl ester, disodium salt] was tested. Which IC50 did it give?
**A.** The IC50 was 0.06 µg/mL.

**Q.** Which IC50 does the source give for `CCOP(=O)(O)c1cc2c(cc1NC(=O)c1cc3ccccc3s1)S(=O)(=O)c1cc(NC(=O)c3cc4ccccc4s3)c(P(=O)(OCC)OCC)cc1-2` [Example 23b, [3,7-Bis[(benzo[b]thiophene-2-carbonyl)amino-8-(diethoxyphosphoryl)-5,5-dioxo-5H-5λ^6-dibenzothiophen-2-yl]phosphonic acid monoethyl ester, monosodium salt] here?
**A.** The IC50 was 0.58 µg/mL.

**Q.** How did the IC50 turn out when `O=C(/C=C/c1ccc([N+](=O)[O-])cc1)Nc1cc2c(cc1S(=O)(=O)O)-c1cc(S(=O)(=O)O)c(NC(=O)/C=C/c3ccc([N+](=O)[O-])cc3)cc1S2(=O)=O` [Example 25, 3,7-Bis-[3-(4-nitrophenyl)-acryloylamino]-5,5-dioxo-5H-5^6-dibenzothiophene-2,8-disulfonic acid, disodium salt] was run?
**A.** The IC50 was 1 µg/mL.

**Q.** Which IC50 does the source give for `O=C(/C=C/c1cccc2ccccc12)Nc1cc2c(cc1S(=O)(=O)O)-c1cc(S(=O)(=O)O)c(NC(=O)/C=C/c3cccc4ccccc34)cc1S2(=O)=O` [Example 26, 3,7-Bis-(3-naphthalen-1-yl-acryloylamino)-5,5-dioxo-5H-5^6-dibenzothiophene-2,8-disulfonic acid, disodium salt] here?
**A.** The IC50 was 1.5 µg/mL.

**Q.** `O=C(/C=C/c1ccncc1)Nc1cc2c(cc1S(=O)(=O)O)-c1cc(S(=O)(=O)O)c(NC(=O)/C=C/c3ccncc3)cc1S2(=O)=O` [Example 28, 5,5-Dioxo-3,7-bis-(3-pyridin-4-ylacryloylamino)-5H-5^6-dibenzothiophene-2,8-disulfonic acid, disodium salt] was tested. Which IC50 did it give?
**A.** Its IC50 is 2.5 µg/mL.

**Q.** With `O=C(/C=C/c1cccc(O)c1)Nc1cc2c(cc1S(=O)(=O)O)-c1cc(S(=O)(=O)O)c(NC(=O)/C=C/c3cccc(O)c3)cc1S2(=O)=O` [Example 31, 3,7-Bis-[(E)-3-(3-hydroxy-phenyl)acryloylamino]-5,5-dioxo-5H-5^6-dibenzothiophene-2,8-disulfonic acid, disodium] as the compound, how does the IC50 read?
**A.** Its IC50 is 5 µg/mL.

**Q.** Which IC50 does the source give for `N#Cc1ccc(/C=C/C(=O)Nc2cc3c(cc2S(=O)(=O)O)-c2cc(S(=O)(=O)O)c(NC(=O)/C=C/c4ccc(C#N)cc4)cc2S3(=O)=O)cc1` [Example 32, 3,7-Bis-[3-(4-cyanophenyl)-acryloylamino]-5,5-dioxo-5H-5^6-dibenzothiophene-2,8-disulfonic acid, disodium salt] here?
**A.** Its IC50 is 0.8 µg/mL.

**Q.** How did the IC50 turn out when `O=C(/C=C/c1ccc(Br)cc1)Nc1cc2c(cc1S(=O)(=O)O)-c1cc(S(=O)(=O)O)c(NC(=O)/C=C/c3ccc(Br)cc3)cc1S2(=O)=O` [Example 33, 3,7-Bis-[3-(4-bromophenyl)-acryloylamino]-5,5-dioxo-5H-5^6-dibenzothiophene-2,8-disulfonic acid, disodium salt] was run?
**A.** The IC50 was 0.5 µg/mL.

**Q.** How did the IC50 turn out when `COc1ccccc1/C=C/C(=O)Nc1cc2c(cc1S(=O)(=O)O)-c1cc(S(=O)(=O)O)c(NC(=O)/C=C/c3ccccc3OC)cc1S2(=O)=O` [Example 34, 3,7-Bis-[3-(2-methoxyphenyl)-acryloylamino]-5,5-dioxo-5H-5^6-dibenzothiophene-2,8-disulfonic acid, disodium salt] was run?
**A.** The IC50 was 2.5 µg/mL.

**Q.** Which IC50 does the source give for `Cc1ccc(C)c(/C=C/C(=O)Nc2cc3c(cc2S(=O)(=O)O)-c2cc(S(=O)(=O)O)c(NC(=O)/C=C/c4cc(C)ccc4C)cc2S3(=O)=O)c1` [Example 35, 3,7-Bis-[3-(2,5-dimethylphenyl)-acryloylamino]-5,5-dioxo-5H-5^6-dibenzothiophene-2,8-disulfonic acid, disodium] here?
**A.** The IC50 was 2.5 µg/mL.

**Q.** How did the IC50 turn out when `CC(C)c1ccc(/C=C/C(=O)Nc2cc3c(cc2S(=O)(=O)O)-c2cc(S(=O)(=O)O)c(NC(=O)/C=C/c4ccc(C(C)C)cc4)cc2S3(=O)=O)cc1` [Example 36, 3,7-Bis-[3-(4-isopropylphenyl)-acryloylamino]-5,5-dioxo-5H-5^ -dibenzothiophene-2,8-disulfonic acid, disodium] was run?
**A.** Its IC50 is 6 µg/mL.

From patent US6022307A, “Substituted dibenzothiophenes having antiangiogenic activity” (American Cyanamid Company, priority 1999, dated 2000)
